The conditions of the data set: human, in vivo.

Regarding `CCOc1ccc(-c2cc(C)cn2-c2ccc(S(N)(=O)=O)cc2)cc1` [2-(4-ethoxyphenyl)-4-methyl-1-(4-sulfamoylphenyl)-pyrrole], the “gastric or duodenal toxicity compared to placebo” value is listed as “no increase”.

Source of the values: patent US20120015919A1, “THERAPIES FOR TREATING CANCER USING COMBINATIONS OF COX-2 INHIBITORS AND AROMATASE INHIBITORS OR COMBINATIONS OF COX-2 INHIBITORS AND ESTROGEN RECEPTOR ANTAGONISTS” (Tragara Pharmaceuticals, Inc., priority 2007, published 2012).
